This note sets out measurements from paper PMC11984924, “Dipeptidic Phosphonates: Potent Inhibitors of Pseudomonas aeruginosa Elastase B Showing Efficacy in a Murine Keratitis Model” (Advanced Science, 2025).

Data set [1] concerns P. aeruginosa strain PA54 keratitis. Put plainly: Murine Pseudomonas keratitis model. Format: in vivo, mouse. As to the method:
Based on our previous findings on target engagement in a murine pneumonia model in combination with a standard‐of‐care antibiotic,^[ [30] ^] we applied the dipeptide (R)‐30 alone and in combination with the commonly used antibiotic meropenem.^[ [9] ^] The keratitis model was carried out using aged female C57BL/6 mice, as previously published.^[ [37] ^] For infection, 5*10^7 colony forming units (CFUs) of PA54 were topically administered on denuded, mechanically harmed corneas. Treatments with meropenem, (R)‐30, or meropenem in combination with (R)‐30 were performed every 8 h for 72 h (first treatment at 6 h post infection). Each of the in total nine 5 µL‐doses contained 1 mg/mL (R)‐30 and/or 0.5 mg mL^−1 meropenem. Sham‐treated mice received 5 µL‐doses of the vehicle (0.9% saline and 1% DMSO) at the time points indicated above, and uninfected eyes received no treatment. […]
Animals: The animal experiments were approved by Saarland University’s Animal Welfare Committee (Application number: 17/2021) and conducted in accordance with German and European recommendations and guidelines for the ethical use of animals. The laboratory animals were all C57BL/6N female eight to eleven months old mice. Keeping in specific pathogen-free conditions was provided. Unlimited access to water and show was secured.
Temperature was closely maintained around 22 °C and relative air humidity around 50%. Light and darkness alternated at twelve-hour intervals. All laboratory animals were purchased from Charles River GmbH, Sulzfeld, Germany.
P. aeruginosa: The P. aeruginosa strain PA54 was employed to induce an experimental bacterial keratitis in the aforementioned C57BL/6N mice. The strain PA54 was isolated from human infections and collected at Saarland University Medical Center’s Institute for Medical Microbiology and Hygienics (IMMH) in 2009. According to Magiorakos et al., PA54 can be classified as multidrug-resistant due to its lacking sensibility to the anti-pseudomonal cephalosporins ceftazidime and cefepime, the anti-pseudomonal fluoroquinolones ciprofloxacin and levofloxacin, the […] fosfomycin, and the aminoglycoside gentamicin.[18] The minimum inhibitory concentration (MIC) of the reserve antibiotic meropenem (meropenem trihydrate, Sigma) was 1 µg/mL (sensitivity limit = 2 µg/mL). The exoU- and exoT-positivity of the PA54 strain, foregrounds its keratitogenic potential.
Inoculum: The P. aeruginosa strain PA54 is routinely grown overnight on blood agar (TrypticaseTM Soy Agar, 5% sheep blood, BD, Heidelberg, Germany) at 37 °C. To obtain a stationary phase cell inoculum, a freshly grown colony was inoculated in tryptic soy broth (TSB; BD, Heidelberg, Germany) and cultured at 37 °C and 150 rounds per minute (rpm) for 16 h.
Then, 2 mL were centrifuged at 13,200 rpm at rt for 2 min, whereupon cells were resuspended in spent medium to an OD600 of 10 (∼1×1010 CFU/mL). Short storage on ice followed, before the infection procedure started.
Infection Procedure: Anesthesia and infection were performed as previously published. Briefly, fentanyl (Hameln Pharma Plus GmbH, Hameln, Germany), midazolam hydrochloride (Midazolam-Hameln, 5 mg/mL, Hameln pharma GmbH, Germany) and medetomidine hydrochloride (Domitor, Orion Corporation, Espoo, Finland) were dissolved in 0.9% NaCl (NaCl 0.9%, Ecotainer 500 mL, B. Braun, Melsungen, Germany), dosed at 0.05 mg/kg, 5 mg/kg and 0.5 mg/kg body weight, respectively, and applied by intraperitoneal injection. Analgesia (Carprofen, 5 mg/kg body weight, Zoetis Deutschland GmbH, Berlin, Germany) was ap plied subcutaneously. Lacrimation was stopped with 10 µL of a 0.6% acetylcysteine solution (Pharmacy of Saarland University Hospitals, Homburg, Germany). Local analgesia (0.5% proxymetacaine hydrochloride, Proparakain -POS Augentropfen, Ursapharm Arzneimitt el GmbH, Saarbrücken, Germany) was eye-dropped and removed after 60 seconds. The blunt […]

Data set [2] is described as follows: Plasma stability, Göttingen minipig. It is filed as in vitro ADME. The note with it: read-out: Minipig Plasma t1/2. How it is done:
To determine stability in plasma, the compound (1 µM) was incubated with pooled CD -1 […]
mouse/human/Wistar rat or Göttingen minipig plasma (Neo Biotech, Nanterre, France).
Samples were taken by mixing aliquots with 4 volumes of acetonitrile containing internal […]
standard (125 nM diphenhydramine). The plasma stability of procain, propantheline and diltiazem were determined in parallel to confirm the enzymatic activity. Samples were stored […]
on ice until the end of the incubation and precipitated protein was removed by centrifugation […]
(15 min, 4 °C, 4,000 g, two centrifugation steps). Concentration of the remaining test compound at the different time points was analyzed by HPLC-MS/MS (TSQ Quantum Access MAX, […]
Thermo Fisher, Dreieich, Germany) and used to determine half-life (t1/2).
Table S2: Additional in vitro ADMET data for selected dipeptides. n.d.: not determined.
Kinetic Liver S9 Clint [µL/mg/min] Plasma t1/2 [min] LogD7.4 […]
pH 7.4 [µM] Mouse Human Mouse Human

In the case of `CC(=O)c1ccc(NC(=O)[C@@H](NC(=O)[C@@H](CC(C)C)P(=O)(O)O)C(C)C)cc1` [(R)‐30], the “effect on bacterial loads in the eye” value in data set [1] (day 3 post infection) is “no clear effect on the bacterial loads”. The “IL‐1β levels in eye homogenate” value in data set [1] (day 3 post infection, compared to sham treatment / uninfected eyes) was “significant reduction”. In data set [1] (day 3 post infection, compared to uninfected eyes), the “KC levels in eye homogenate” value is on record as “significantly higher amounts of this chemokine”. Also, in data set [1] (day three post infection, topical every 8 h for 72 h, 1 mg/mL (R)-30 and/or 0.5 mg/mL meropenem), the “median clinical keratitis score” value came to 4.
For `CC(=O)c1ccc(NC(=O)[C@@H](NC(=O)C(CC(C)C)P(=O)(O)O)C(C)C)cc1` (some centres unmarked) [compound 30], the half-life at 1 µM in data set [2] is above 4 h.
